Results reported in patent US20240208955A1 (RESEARCH TRIANGLE INSTITUTE, priority 2021, published 2024).
Read-outs that look alike come from different tables or passages of the source.

Tests used:
[1] = target: T1, human RXFP3 (Homo sapiens, UniProt Q9NSD7); experiment: RXFP3 cAMP accumulation assay (inhibition of relaxin-3 activity) in stable CHO human RXFP3 cells
T1 sequence (Q9NSD7 1-469): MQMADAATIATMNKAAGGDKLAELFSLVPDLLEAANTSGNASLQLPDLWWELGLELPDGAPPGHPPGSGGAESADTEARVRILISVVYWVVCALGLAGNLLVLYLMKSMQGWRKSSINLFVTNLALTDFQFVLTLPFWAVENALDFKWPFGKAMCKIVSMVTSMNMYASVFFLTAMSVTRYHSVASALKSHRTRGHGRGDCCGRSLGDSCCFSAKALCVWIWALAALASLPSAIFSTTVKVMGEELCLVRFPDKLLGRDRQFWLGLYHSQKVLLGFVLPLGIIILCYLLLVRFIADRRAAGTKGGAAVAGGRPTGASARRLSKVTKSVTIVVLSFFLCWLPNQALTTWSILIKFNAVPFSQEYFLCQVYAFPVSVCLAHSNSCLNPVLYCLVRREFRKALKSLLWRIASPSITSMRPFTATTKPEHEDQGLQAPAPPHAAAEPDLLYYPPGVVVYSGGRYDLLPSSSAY
Protocol: The assay is based on the competition between a europium chelate-labeled cAMP tracer and unlabeled cAMP produced by cells. […] CHO human RXFP3 cells were cultured in F12 media supplemented with 10% FBS, 100 units/mL penicillin, 100 μg/mL streptomycin, and 400 μg/mL geneticin. Stimulation buffer containing 1×HBSS, 5 mM HEPES (pH 7.4), 0.1% BSA stabilizer, and 0.5 mM IBMX was prepared. A concentration response curve of each test compound was prepared at 4 times the desired final concentration in 4% DMSO/stimulation buffer, and 5 μL was added to the assay plate. […] Forskolin (1 μM) was prepared at 4 times the desired concentration in stimulation buffer, and 5 μL was added to the assay plate. Cells were lifted from flasks with versene and spun at 270 g for 5 min. The cell pellet was resuspended in stimulation buffer and 5000 cells (5 μL) were added to each well. After incubating for 30 min at room temperature, Eu cAMP tracer and uLIGHT-anticAMP working solutions were added per the manufacturer's instructions.

[2] = target: T2, RXFP1 (Homo sapiens, UniProt Q9HBX9); experiment: Activity at RXFP1 (selectivity); format: cell-based; conditions: all concentrations tested up to 30 μM
T2 sequence (Q9HBX9 1-757): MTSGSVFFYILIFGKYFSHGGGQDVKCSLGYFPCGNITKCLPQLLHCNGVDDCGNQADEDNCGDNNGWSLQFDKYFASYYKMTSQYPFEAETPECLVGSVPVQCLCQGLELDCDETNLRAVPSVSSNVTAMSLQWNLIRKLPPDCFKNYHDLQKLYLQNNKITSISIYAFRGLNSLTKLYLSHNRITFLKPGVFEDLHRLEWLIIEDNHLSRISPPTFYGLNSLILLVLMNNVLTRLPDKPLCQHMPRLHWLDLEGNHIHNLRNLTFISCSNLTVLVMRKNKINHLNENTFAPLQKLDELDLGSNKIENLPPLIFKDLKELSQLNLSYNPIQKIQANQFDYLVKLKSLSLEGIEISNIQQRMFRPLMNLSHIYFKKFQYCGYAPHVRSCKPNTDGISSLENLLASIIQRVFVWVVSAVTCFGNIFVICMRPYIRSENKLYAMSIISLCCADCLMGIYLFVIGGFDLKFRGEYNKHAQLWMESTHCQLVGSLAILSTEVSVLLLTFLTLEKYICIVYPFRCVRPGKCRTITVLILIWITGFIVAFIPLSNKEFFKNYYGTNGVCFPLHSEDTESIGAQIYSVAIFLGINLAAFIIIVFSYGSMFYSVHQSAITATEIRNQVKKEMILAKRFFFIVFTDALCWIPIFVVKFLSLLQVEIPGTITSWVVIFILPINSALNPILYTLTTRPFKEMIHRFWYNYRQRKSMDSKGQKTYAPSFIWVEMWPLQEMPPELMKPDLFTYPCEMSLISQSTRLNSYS
Text: It is believed that these compounds represent the first series of small molecule RXFP3 antagonists to be described.

[3] = IC50 (functional RXFP3 antagonist), inhibition of relaxin-3 activity, RXFP3-CHO cAMP assay

IC50 [1] | Compound | also measured
7.53 ± 0.998 µM | O=C(Nc1ccc(-c2nc(-c3ccccc3)no2)cc1)C1CC(=O)N(Cc2ccccc2)C1 (stereo not shown) [RLX-2, 1-Benzyl-N-[4-(3-phenyl-1,2,4-oxadiazol-5-yl)phenyl]-5-oxopyrrolidine-3-carboxamide] | 
> 10 µM | Cc1ccc(-c2noc(-c3ccc(NC(=O)C4CC(=O)N(CCc5ccccc5)C4)cc3)n2)cc1 (stereo not shown) [RLX-4, N-{4-[3-(4-Methylphenyl)-1,2,4-oxadiazol-5-yl]phenyl}-5-oxo-1-(2-phenylethyl)pyrrolidine-3-carboxamide] | 
> 10 µM | Cc1ccc(-c2noc(-c3ccc(NC(=O)C4CC(=O)N(Cc5cccc(C)c5)C4)cc3)n2)cc1 (stereo not shown) [RLX-8, 1-[(3-Methylphenyl)methyl]-N-{4-[3-(4-methylphenyl)-1,2,4-oxadiazol-5-yl]phenyl}-5-oxopyrrolidine-3-carboxamide] | 
4.81 ± 0.682 µM | Cc1ccc(-c2noc(-c3ccc(NC(=O)C4CC(=O)N(Cc5ccccn5)C4)cc3)n2)cc1 (stereo not shown) [RLX-9, N-{4-[3-(4-Methylphenyl)-1,2,4-oxadiazol-5-yl]phenyl}-5-oxo-1-[(pyridin-2-yl)methyl]-pyrrolidine-3-carboxamide] | 
2.35 ± 0.248 µM | Cc1ccc(-c2noc(-c3ccc(NC(=O)C4CC(=O)N(Cc5cccnc5)C4)cc3)n2)cc1 (stereo not shown) [RLX-10, N-{4-[3-(4-Methylphenyl)-1,2,4-oxadiazol-5-yl]phenyl}-5-oxo-1-[(pyridin-3-yl)methyl]-pyrrolidine-3-carboxamide] | 
2.72 ± 0.384 µM | Cc1ccc(-c2noc(-c3ccc(NC(=O)C4CC(=O)N(C)C4)cc3)n2)cc1 (stereo not shown) [RLX-15, 1-Methyl-N-{4-[3-(4-methylphenyl)-1,2,4-oxadiazol-5-yl]phenyl}-5-oxopyrrolidine-3-carboxamide] | 
6.61 ± 0.909 µM | O=C(Nc1ccc(-c2nc(-c3ccccc3)no2)cc1)C1CC(=O)N(Cc2cccnc2)C1 (stereo not shown) [RLX-16, 5-Oxo-N-[4-(3-phenyl-1,2,4-oxadiazol-5-yl)phenyl]-1-[(pyridin-3-yl)methyl]-pyrrolidine-3-carboxamide] | 
5.35 ± 1.34 µM | Cc1cccc(-c2noc(-c3ccc(NC(=O)C4CC(=O)N(Cc5cccnc5)C4)cc3)n2)c1 (stereo not shown) [RLX-17, N-{4-[3-(3-Methylphenyl)-1,2,4-oxadiazol-5-yl]phenyl}-5-oxo-1-[(pyridin-3-yl)methyl]-pyrrolidine-3-carboxamide] | 
1.34 ± 0.226 µM | O=C(Nc1ccc(-c2nc(-c3cccc(F)c3)no2)cc1)C1CC(=O)N(Cc2cccnc2)C1 (stereo not shown) [RLX-19, N-{4-[3-(3-Fluorophenyl)-1,2,4-oxadiazol-5-yl]phenyl}-5-oxo-1-(3-pyridinylmethyl) pyrrolidine-3-carboxamide] | IC50 [1, 3]: 1.3 µM
1.91 ± 0.367 µM | O=C(Nc1ccc(-c2nc(-c3ccc(F)cc3)no2)cc1)C1CC(=O)N(Cc2cccnc2)C1 (stereo not shown) [RLX-20, N-{4-[3-(4-Fluorophenyl)-1,2,4-oxadiazol-5-yl]phenyl}-5-oxo-1-[(pyridin-3-yl)methyl]-pyrrolidine-3-carboxamide] | 
2.5 ± 0.097 µM | O=C(Nc1ccc(-c2nc(-c3ccc(C(F)(F)F)cc3)no2)cc1)C1CC(=O)N(Cc2cccnc2)C1 (stereo not shown) [RLX-21, 5-Oxo-1-[(pyridin-3-yl)methyl]-N-(4-{3-[4-(trifluoromethyl)phenyl]-1,2,4-oxadiazol-5-yl}phenyl)-pyrrolidine-3-carboxamide] | 
 | COc1ccc(-c2noc(-c3ccc(NC(=O)C4CC(=O)N(Cc5cccnc5)C4)cc3)n2)cc1 (stereo not shown) [RLX-22, N-{4-[3-(4-Methoxyphenyl)-1,2,4-oxadiazol-5-yl]phenyl}-5-oxo-1-[(pyridin-3-yl)methyl]-pyrrolidine-3-carboxamide] | IC50 (nM) ([1]; inhibition of relaxin-3 (0.6 nM) activity, forskolin-stimulated cAMP accumulation, CHO human RXFP3 cells, mean ± SEM of at least three independent experiments in duplicate): Not active
1.25 ± 0.219 µM | O=C(Nc1ccc(-c2nc(-c3ccc(Cl)cc3)no2)cc1)C1CC(=O)N(Cc2cccnc2)C1 (stereo not shown) [RLX-24, N-{4-[3-(4-Chlorophenyl)-1,2,4-oxadiazol-5-yl]phenyl}-5-oxo-1-[(pyridin-3-yl)methyl]-pyrrolidine-3-carboxamide] | IC50 [1, 3]: 1.2 µM
2.89 ± 0.193 µM | O=C(Nc1ccc(-c2nc(-c3ccc(Br)cc3)no2)cc1)C1CC(=O)N(Cc2cccnc2)C1 (stereo not shown) [RLX-25, N-{4-[3-(4-Bromophenyl)-1,2,4-oxadiazol-5-yl]phenyl}-5-oxo-1-[(pyridin-3-yl)methyl]-pyrrolidine-3-carboxamide] | 
6.68 ± 0.349 µM | O=C(Nc1ccc(-c2nc(-c3ccc(C(F)(F)F)cc3)no2)cc1)C1CC(=O)N(Cc2ccco2)C1 (stereo not shown) [RLX-32, 1-[(Furan-2-yl)methyl]-5-oxo-N-(4-{3-[4-(trifluoromethyl)phenyl]-1,2,4-oxadiazol-5-yl}phenyl)pyrrolidine-3-carboxamide] | 
2.88 ± 0.321 µM | O=C(Nc1ccc(-c2nc(-c3ccc(Cl)cc3)no2)cc1)C1CC(=O)N(Cc2ccco2)C1 (stereo not shown) [RLX-33, N-{4-[3-(4-Chlorophenyl)-1,2,4-oxadiazol-5-yl]phenyl}-1-[(furan-2-yl)methyl]-5-oxopyrrolidine-3-carboxamide] | activity at RXFP1 [2]: no activity; IC50 [1, 3]: 2.9 µM
> 10 µM | Cc1ccc(-c2noc(-c3ccc(NC(=O)C4CCN(Cc5ccccc5)C4)cc3)n2)cc1 (stereo not shown) [RLX-37, 1-Benyl-N-{4-[3-(4-methylphenyl)-1,2,4-oxadiazol-5-yl]phenyl}-pyrrolidine-3-carboxamide] | 
5.59 ± 0.623 µM | Cc1ccc(-c2noc(-c3ccc(NC(=O)CCNCc4ccccc4)cc3)n2)cc1 [RLX-39, 3-[Benzylamino]-N-{4-[3-(4-methylphenyl)-1,2,4-oxadiazol-5-yl]phenyl}propanamide] | 
